Data reported in PubChem BioAssay AID1919013 (Molecular Pharmacology Branch, DTP, NCI, 2023).

System: LG0703-F498-PDC complex spheroid growth
Assay: Anticancer human tumor LG0703-F498-PDC patient-derived lung adenocarcinoma cell line growth inhibition [AhR]
Conditions: for IC50: curve of first compound; for viability, T/C: stronger effect = lower value
Summary of the method: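 Complex tumor spheroids co-cultured with HUVEC and human MSC stroma; AhR antagonists tested in combination with standard-of-care and investigational agents. Top concentration at or near clinical Cmax (else 10 microM), half-log dilutions; growth expressed as percent test/control.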

[1] = second compound 0.1 µM, first compound 0.0316 µM
[2] = second compound 0.1 µM, first compound 0.1 µM
[3] = second compound 0.1 µM, first compound 0.316 µM
[4] = second compound 0.1 µM, first compound 1 µM
[5] = second compound 0.1 µM, first compound 3.16 µM
[6] = second compound 0.1 µM, first compound 10 µM
[7] = second compound 0.316 µM, first compound 0.0316 µM
[8] = second compound 0.316 µM, first compound 0.1 µM
[9] = second compound 0.316 µM, first compound 0.316 µM
[10] = second compound 0.316 µM, first compound 1 µM
[11] = second compound 0.316 µM, first compound 3.16 µM
[12] = second compound 0.316 µM, first compound 10 µM
[13] = second compound 1 µM, first compound 0.0316 µM
[14] = second compound 1 µM, first compound 0.1 µM
[15] = second compound 1 µM, first compound 0.316 µM
[16] = second compound 1 µM, first compound 1 µM
[17] = second compound 1 µM, first compound 3.16 µM
[18] = second compound 1 µM, first compound 10 µM
[19] = second compound 3.16 µM, first compound 0.0316 µM
[20] = second compound 3.16 µM, first compound 0.1 µM
[21] = second compound 3.16 µM, first compound 0.316 µM
[22] = second compound 3.16 µM, first compound 1 µM
[23] = second compound 3.16 µM, first compound 3.16 µM
[24] = second compound 3.16 µM, first compound 10 µM
[25] = second compound 10 µM, first compound 0.0316 µM
[26] = second compound 10 µM, first compound 0.1 µM
[27] = second compound 10 µM, first compound 0.316 µM
[28] = second compound 10 µM, first compound 1 µM
[29] = second compound 10 µM, first compound 3.16 µM
[30] = second compound 10 µM, first compound 10 µM
[31] = second compound 0.1 µM, first compound 0.00316 µM
[32] = second compound 0.1 µM, first compound 0.01 µM
[33] = second compound 0.316 µM, first compound 0.00316 µM
[34] = second compound 0.316 µM, first compound 0.01 µM
[35] = second compound 1 µM, first compound 0.00316 µM
[36] = second compound 1 µM, first compound 0.01 µM
[37] = second compound 3.16 µM, first compound 0.00316 µM
[38] = second compound 3.16 µM, first compound 0.01 µM
[39] = second compound 10 µM, first compound 0.00316 µM
[40] = second compound 10 µM, first compound 0.01 µM
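Further: luminescence taken as a proxy for viable cell amount.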
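Wherever viability, T/C is given: percent of DMSO vehicle control where 100% means growth equal to vehicle.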

| Structure (SMILES) | IC50 (second compound 0.1 µM) | IC50 (second compound 0.316 µM) | IC50 (second compound 1 µM) | IC50 (second compound 3.16 µM) | IC50 (second compound 10 µM) | viability, T/C [1] | viability, T/C [2] | viability, T/C [3] | viability, T/C [4] | viability, T/C [7] | viability, T/C [8] | viability, T/C [9] | viability, T/C [10] | viability, T/C [13] | viability, T/C [14] | viability, T/C [15] | viability, T/C [19] | viability, T/C [20] | viability, T/C [25] | viability, T/C [26] | further results |
| --- | --- | --- | --- | --- | --- | --- | --- | --- | --- | --- | --- | --- | --- | --- | --- | --- | --- | --- | --- | --- | --- |
| CC(C)c1c(-c2ccccc2)nc2c(C#N)c[nH]n2c1=O + CC(CO)NC(=O)c1cc(-c2ccc(Cl)cc2)nn(-c2cnn(C)c2)c1=O | > 10000 nM | > 10000 nM | > 10000 nM | > 10000 nM | > 10000 nM | 94.2% | 96.5% | 87.5% | 86.1% | 88.2% | 95.5% | 100% | 78.9% | 82% | 88.7% | 83.8% | 70.3% | 96.7% | 73% | 76.5% | viability, T/C [5]: 87.3%; viability, T/C [6]: 80.8%; viability, T/C [11]: 84.1%; viability, T/C [12]: 78.5%; viability, T/C [16]: 87.3%; viability, T/C [17]: 83.4%; viability, T/C [18]: 82%; viability, T/C [21]: 73.3%; viability, T/C [22]: 69%; viability, T/C [23]: 85%; viability, T/C [24]: 78.1%; viability, T/C [27]: 66.2%; viability, T/C [28]: 69.2%; viability, T/C [29]: 67.4%; viability, T/C [30]: 69.4% |
| COc1ccc([C@@H](O)c2cc(-c3ncnc4cc(N5CCOCC5)ccc34)c(F)cc2Cl)nn1 + CC(CO)NC(=O)c1cc(-c2ccc(Cl)cc2)nn(-c2cnn(C)c2)c1=O | 3650 nM | 4790 nM | 5260 nM | 3180 nM | 2910 nM | 88.9% | 89.9% | 93.5% | 76% | 94.2% | 95.8% | 81% | 74.5% | 97.4% | 95.1% | 88.1% | 93.1% | 86.4% | 78.5% | 88.3% | viability, T/C [5]: 53.5%; viability, T/C [6]: 31.7%; viability, T/C [11]: 64.5%; viability, T/C [12]: 30.5%; viability, T/C [16]: 83.8%; viability, T/C [17]: 61.6%; viability, T/C [18]: 34.4%; viability, T/C [21]: 88.1%; viability, T/C [22]: 68.3%; viability, T/C [23]: 51.2%; viability, T/C [24]: 32.1%; viability, T/C [27]: 77.1%; viability, T/C [28]: 69.5%; viability, T/C [29]: 48.5%; viability, T/C [30]: 33.4% |
| CC[C@@]1(O)C(=O)OCc2c1cc1n(c2=O)Cc2cc3c(CN(C)C)c(O)ccc3nc2-1 + Cc1ccccc1N=Nc1ccc(NC(=O)c2ccnn2C)c(C)c1 | > 100 nM | > 100 nM | > 100 nM | > 100 nM | > 100 nM | 88.5% | 60.3% |  |  | 77.2% | 66.6% |  |  | 78.9% | 61.2% |  | 61.1% | 51.1% | 57.1% | 60.2% | viability, T/C (second compound 0.1 µM, first compound 0.000316 µM): 94.9%; viability, T/C (second compound 0.1 µM, first compound 0.001 µM): 116%; viability, T/C [31]: 92.2%; viability, T/C [32]: 96.2%; viability, T/C (second compound 0.316 µM, first compound 0.000316 µM): 97.8%; viability, T/C (second compound 0.316 µM, first compound 0.001 µM): 93.6%; viability, T/C [33]: 78.5%; viability, T/C [34]: 93.6%; viability, T/C (second compound 1 µM, first compound 0.000316 µM): 93.9%; viability, T/C (second compound 1 µM, first compound 0.001 µM): 82.2%; viability, T/C [35]: 83.5%; viability, T/C [36]: 82.2%; viability, T/C (second compound 3.16 µM, first compound 0.000316 µM): 84.4%; viability, T/C (second compound 3.16 µM, first compound 0.001 µM): 83.9%; viability, T/C [37]: 86.1%; viability, T/C [38]: 72.6%; viability, T/C (second compound 10 µM, first compound 0.000316 µM): 72.9%; viability, T/C (second compound 10 µM, first compound 0.001 µM): 80.5%; viability, T/C [39]: 78.7%; viability, T/C [40]: 63.9% |
| COc1cc(C2c3cc4c(cc3C(OC3OC5COC(C)OC5C(O)C3O)C3COC(=O)C23)OCO4)cc(OC)c1O (stereo not given) + Cc1ccccc1N=Nc1ccc(NC(=O)c2ccnn2C)c(C)c1 | > 10000 nM | > 10000 nM | > 10000 nM | > 10000 nM | > 10000 nM | 94.8% | 103% | 86.2% | 95.2% | 96.2% | 93.5% | 106% | 79.5% | 79.2% | 104% | 99.4% | 85.5% | 94% | 77% | 96.5% | viability, T/C [5]: 91.3%; viability, T/C [6]: 72.1%; viability, T/C [11]: 68.4%; viability, T/C [12]: 59.3%; viability, T/C [16]: 79.8%; viability, T/C [17]: 65.2%; viability, T/C [18]: 62.7%; viability, T/C [21]: 93.5%; viability, T/C [22]: 80.2%; viability, T/C [23]: 74.2%; viability, T/C [24]: 59.6%; viability, T/C [27]: 93.5%; viability, T/C [28]: 73.5%; viability, T/C [29]: 81.4%; viability, T/C [30]: 70.6% |
| COc1cccc2c1C(=O)c1c(O)c3c(c(O)c1C2=O)CC(O)(C(=O)CO)CC3OC1CC(N)C(O)C(C)O1 (stereo not given) + Cc1ccccc1N=Nc1ccc(NC(=O)c2ccnn2C)c(C)c1 | 687 nM | 552 nM | 564 nM | 573 nM | 680 nM | 92.4% | 90% | 69.9% | 40.7% | 93.5% | 89.7% | 59.3% | 38.2% | 79.1% | 95.6% | 64.9% | 92.5% | 85.9% | 80.8% | 82.3% | viability, T/C [5]: 11.5%; viability, T/C [6]: 0.88%; viability, T/C [11]: 11.3%; viability, T/C [12]: 0.75%; viability, T/C [16]: 32.1%; viability, T/C [17]: 10.6%; viability, T/C [18]: 0.84%; viability, T/C [21]: 67.2%; viability, T/C [22]: 34.2%; viability, T/C [23]: 8.26%; viability, T/C [24]: 0.48%; viability, T/C [27]: 69.9%; viability, T/C [28]: 40.4%; viability, T/C [29]: 5.43%; viability, T/C [30]: 2.16% |
| Nc1ncn(C2CC(O)C(CO)O2)c(=O)n1 (stereo not given) + Cc1ccccc1N=Nc1ccc(NC(=O)c2ccnn2C)c(C)c1 | > 1000 nM | > 1000 nM | > 1000 nM | > 1000 nM | > 1000 nM | 94.8% | 85% | 83.2% | 83.9% | 92.1% | 90.1% | 76.5% | 87% | 88% | 89.7% | 75.4% | 87% | 75% | 86.6% | 72.4% | viability, T/C [31]: 96.5%; viability, T/C [32]: 99.1%; viability, T/C [33]: 97%; viability, T/C [34]: 93.6%; viability, T/C [35]: 86.2%; viability, T/C [36]: 101%; viability, T/C [16]: 92.6%; viability, T/C [37]: 95.2%; viability, T/C [38]: 97.6%; viability, T/C [21]: 79.4%; viability, T/C [22]: 65.5%; viability, T/C [39]: 85.9%; viability, T/C [40]: 90.9%; viability, T/C [27]: 74.2%; viability, T/C [28]: 68.3% |
